The record followed here is PubChem BioAssay AID330 (DTP/NCI, 2004).

Several values for one entry are separate records, joined by “and”; a condition that tells them apart may be missing. Identical values can stand only once. Toxic doses and inconclusive results are not listed.

The subject of this assay is P388 leukemia ip, CD2F1 mice, survival T/C. In words: NCI In Vivo Anticancer Drug Screen. Data for tumor model P388 Leukemia (intraperitoneal) in CD2F1 (CDF1) mice. To be noted: endpoint: median survival time, higher = longer survival. An outline of the steps: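 Mice carrying the transplanted tumor received test compound or vehicle. Survival was recorded in each group, and the value is the treated-group measurement divided by that of the vehicle-treated control group.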

Where [1] appears, read: dose: 50.0 mg/kg/injection, schedule: Q01DX005 (ip), vehicle: saline with Tween-80.
[2] abbreviates: dose: 100.0 mg/kg/injection, schedule: Q01DX005 (ip), vehicle: saline with Tween-80.
Setting [3] is: dose: 200.0 mg/kg/injection, schedule: Q01DX005 (ip), vehicle: saline with Tween-80.
The mark [4] stands for this setting: dose: 25.0 mg/kg/injection, schedule: Q01DX009 (ip), vehicle: other.
The mark [5] stands for this setting: dose: 50.0 mg/kg/injection, schedule: Q01DX009 (ip), vehicle: other.
The mark [6] stands for this setting: dose: 100.0 mg/kg/injection, schedule: Q01DX009 (ip), vehicle: other.
Setting [7] is: dose: 60.0 mg/kg/injection, schedule: Q01DX005 (ip), vehicle: saline with Tween-80.
[8] abbreviates: dose: 120.0 mg/kg/injection, schedule: Q01DX005 (ip), vehicle: saline with Tween-80.
The mark [9] stands for this setting: dose: 240.0 mg/kg/injection, schedule: Q01DX005 (ip), vehicle: saline with Tween-80.
[10] abbreviates: dose: 50.0 mg/kg/injection, schedule: Q01DX009 (ip), vehicle: Klucel (hydroxypropylcellulose) (HPC).
Setting [11] is: dose: 100.0 mg/kg/injection, schedule: Q01DX009 (ip), vehicle: Klucel (hydroxypropylcellulose) (HPC).
Where [12] appears, read: dose: 200.0 mg/kg/injection, schedule: Q01DX009 (ip), vehicle: Klucel (hydroxypropylcellulose) (HPC).

As for `Cc1cc(C)n2nc3c4ccsc4ncc3c2n1`, the T/C is 105 % of control and 95 % of control (dose: 25.0 mg/kg/injection, schedule: Q04DX002 (ip), vehicle: saline with Tween-80); 99 % of control and 105 % of control (dose: 50.0 mg/kg/injection, schedule: Q04DX002 (ip), vehicle: saline with Tween-80); 116 % of control and 118 % of control and 119 % of control (dose: 100.0 mg/kg/injection, schedule: Q04DX002 (ip), vehicle: saline with Tween-80).
As for `CCOC(=O)c1ccccc1NC(=O)C1C2C=CC(C2)C1C(=O)O` (centres undefined), the T/C runs as follows: (dose: 50.0 mg/kg/injection, schedule: Q01DX009 (ip), vehicle: saline + alcohol) 103 % of control; (dose: 100.0 mg/kg/injection, schedule: Q01DX009 (ip), vehicle: saline + alcohol) 104 % of control; (dose: 200.0 mg/kg/injection, schedule: Q01DX009 (ip), vehicle: saline + alcohol) 97 % of control.
Consider `COc1cc2c(=O)oc3c(OC)c(O)cc4c(=O)oc(c1OC)c2c34`, for which the T/C is, setting by setting: (dose: 2.0 mg/kg/injection, schedule: Q01DX005 (ip), vehicle: saline with Tween-80) 97 % of control; (dose: 4.0 mg/kg/injection, schedule: Q01DX005 (ip), vehicle: saline with Tween-80) 100 % of control and 96 % of control and 98 % of control; (dose: 8.0 mg/kg/injection, schedule: Q01DX005 (ip), vehicle: saline with Tween-80) 92 % of control and 96 % of control and 98 % of control; (dose: 16.0 mg/kg/injection, schedule: Q01DX005 (ip), vehicle: saline with Tween-80) 87 % of control and 91 % of control; (dose: 32.0 mg/kg/injection, schedule: Q01DX005 (ip), vehicle: saline with Tween-80) 89 % of control.
On to `c1ncn(Sn2cncn2)n1`, for which the T/C was 100 % of control (dose: 8.75 mg/kg/injection, schedule: Q01DX005 (ip), vehicle: Klucel (hydroxypropylcellulose) (HPC)); 101 % of control (dose: 17.5 mg/kg/injection, schedule: Q01DX005 (ip), vehicle: Klucel (hydroxypropylcellulose) (HPC)); 104 % of control (dose: 35.0 mg/kg/injection, schedule: Q01DX005 (ip), vehicle: Klucel (hydroxypropylcellulose) (HPC)).
For `CC1(C)OC(=O)N=C1c1ccc(Br)cc1`, the T/C is 100 % of control (dose: 60.0 mg/kg/injection, schedule: Q01DX005 (ip), vehicle: Klucel (hydroxypropylcellulose) (HPC)) and 104 % of control (dose: 120.0 mg/kg/injection, schedule: Q01DX005 (ip), vehicle: Klucel (hydroxypropylcellulose) (HPC)).
Consider `O=C1c2cc3c(cc2C(=O)c2[nH]c(=O)ccc21)CCCC3`, for which the T/C under setting [1] is 100 % of control, the T/C under setting [2] was 88 % of control and the T/C under setting [3] is 101 % of control.
Take `CCOC(=O)CC(=O)Nc1cc2ccc(OC)c(OC)c2cc1C(=O)OCC`: the T/C by setting is: under setting [4], 88 % of control; under setting [5], 88 % of control; under setting [6], 96 % of control; (dose: 200.0 mg/kg/injection, schedule: Q01DX009 (ip), vehicle: other) 87 % of control; (dose: 400.0 mg/kg/injection, schedule: Q01DX009 (ip), vehicle: other) 105 % of control.
On to `C#CC1(O)CC2c3ccc(OC)cc3CCC2(C)C1` (centres undefined), for which the T/C is 117 % of control (dose: 6.25 mg/kg/injection, schedule: Q01DX009 (ip), vehicle: Klucel (hydroxypropylcellulose) (HPC)); 105 % of control (dose: 12.5 mg/kg/injection, schedule: Q01DX009 (ip), vehicle: Klucel (hydroxypropylcellulose) (HPC)); 112 % of control (dose: 25.0 mg/kg/injection, schedule: Q01DX009 (ip), vehicle: Klucel (hydroxypropylcellulose) (HPC)).
Consider `CC1(C)N=C(N)N=C(N)N1c1cccc(CSc2ccccc2)c1`, for which the T/C (dose: 7.5 mg/kg/injection, schedule: Q01DX005 (ip), vehicle: Klucel (hydroxypropylcellulose) (HPC)) was 98 % of control; the T/C (dose: 15.0 mg/kg/injection, schedule: Q01DX005 (ip), vehicle: Klucel (hydroxypropylcellulose) (HPC)) was 103 % of control; the T/C (dose: 30.0 mg/kg/injection, schedule: Q01DX005 (ip), vehicle: Klucel (hydroxypropylcellulose) (HPC)) is 103 % of control.
In the case of `Cn1ccc(=Nc2ccc(NC(=O)c3ccc(N=c4ccn(C)c5ccc([N+](=O)[O-])cc45)cc3)cc2)cc1`, the T/C reads like this: (dose: 3.13 mg/kg/injection, schedule: Q01DX009 (ip), vehicle: other) 160 % of control; (dose: 6.25 mg/kg/injection, schedule: Q01DX009 (ip), vehicle: other) 188 % of control; (dose: 12.5 mg/kg/injection, schedule: Q01DX009 (ip), vehicle: other) 182 % of control; under setting [4], 179 % of control and 220 % of control; under setting [5], 168 % of control; under setting [6], 97 % of control.
Turning to `CCCCOC(=O)C1ON(c2ccc(C=O)cc2)C(c2ccc([N+](=O)[O-])cc2)C1C(=O)OCCCC` (centres undefined), the T/C by setting is: (dose: 50.0 mg/kg/injection, schedule: Q01DX005 (ip), vehicle: Klucel (hydroxypropylcellulose) (HPC)) 97 % of control; (dose: 100.0 mg/kg/injection, schedule: Q01DX005 (ip), vehicle: Klucel (hydroxypropylcellulose) (HPC)) 94 % of control; (dose: 200.0 mg/kg/injection, schedule: Q01DX005 (ip), vehicle: Klucel (hydroxypropylcellulose) (HPC)) 91 % of control.
Regarding `Nc1ccc2c3c(cccc13)C(=O)N(CCCBr)C2=O`, the T/C was 103 % of control under setting [7], 113 % of control under setting [8] and 107 % of control under setting [9].
Consider `CCOc1cc2c(cc1C(C)c1ccc(Cl)cc1)OCO2` (centres undefined), for which the T/C under setting [1] is 93 % of control, the T/C under setting [2] is 99 % of control and the T/C under setting [3] is 93 % of control.
Consider `COC(=O)[C@H](C)C1OC(O)C=CC1=O` (some centres undefined), for which the T/C is, setting by setting: (dose: 6.25 mg/kg/injection, schedule: Q01DX001 (ip), vehicle: saline + Tween-80 + alcohol) 100 % of control; (dose: 12.5 mg/kg/injection, schedule: Q01DX001 (ip), vehicle: saline + Tween-80 + alcohol) 108 % of control; (dose: 25.0 mg/kg/injection, schedule: Q01DX001 (ip), vehicle: saline + Tween-80 + alcohol) 101 % of control; (dose: 50.0 mg/kg/injection, schedule: Q01DX001 (ip), vehicle: saline + Tween-80 + alcohol) 101 % of control.
With `CCCOc1cc2c(cc1C(C)c1ccc(OCC)c(C)c1)OCO2` (centres undefined), the T/C by setting is: (dose: 30.0 mg/kg/injection, schedule: Q01DX005 (ip), vehicle: saline with Tween-80) 100 % of control; under setting [7], 103 % of control; under setting [8], 106 % of control; under setting [9], 116 % of control.
In the case of `Cc1c(N2CCCC2)cc2c(c1-n1cccc1)C(C)(C)CC2(C)C`, the T/C by setting is: under setting [10], 102 % of control; under setting [11], 96 % of control; under setting [12], 96 % of control.
With `CC1C(c2ccccc2)=NN(C)c2ccccc21` (centres undefined), the T/C runs as follows: under setting [7], 97 % of control; under setting [8], 102 % of control; under setting [9], 90 % of control.
On to `Cc1ccc(S(=O)(=O)OC2C(O)CC(=O)C(OC(=O)c3ccccc3)C2OC(=O)c2ccccc2)cc1` (centres undefined), for which the T/C is 90 % of control (dose: 50.0 mg/kg/injection, schedule: Q01DX001 (ip), vehicle: saline with Tween-80); 89 % of control (dose: 100.0 mg/kg/injection, schedule: Q01DX001 (ip), vehicle: saline with Tween-80); 100 % of control (dose: 400.0 mg/kg/injection, schedule: Q01DX001 (ip), vehicle: saline with Tween-80).
In the case of `CCCCCCCCCCCCCCCc1ccc(OC)cc1`, the T/C (dose: 7.5 mg/kg/injection, schedule: Q01DX009 (ip), vehicle: saline with Tween-80) is 90 % of control; the T/C (dose: 15.0 mg/kg/injection, schedule: Q01DX009 (ip), vehicle: saline with Tween-80) was 94 % of control; the T/C (dose: 30.0 mg/kg/injection, schedule: Q01DX009 (ip), vehicle: saline with Tween-80) is 104 % of control.
In the case of `COC(=O)C1C(=O)COc2ccccc21` (centres undefined), the T/C reads like this: (dose: 100.0 mg/kg/injection, schedule: Q04DX003 (ip), vehicle: saline) 105 % of control; (dose: 200.0 mg/kg/injection, schedule: Q04DX003 (ip), vehicle: saline) 106 % of control; (dose: 400.0 mg/kg/injection, schedule: Q04DX003 (ip), vehicle: saline) 106 % of control.
Turning to `COc1ccc(CSC(=S)Nc2ccc(F)cc2F)cc1`, the T/C is, setting by setting: under setting [10], 99 % of control; (dose: 50.0 mg/kg/injection, schedule: Q01DX009 (ip), vehicle: suspension in saline) 106 % of control; under setting [11], 107 % of control; (dose: 100.0 mg/kg/injection, schedule: Q01DX009 (ip), vehicle: suspension in saline) 100 % of control; under setting [12], 112 % of control; (dose: 200.0 mg/kg/injection, schedule: Q01DX009 (ip), vehicle: suspension in saline) 98 % of control.
